Reference: paper PMC10799341, “Carnosol ameliorated cancer cachexia-associated myotube atrophy by targeting P5CS and its downstream pathways” (Frontiers in Pharmacology, 2024)

Experiments:
[1] = biological target: T1, P5CS, endogenous in H9c2 cardiomyocytes (Rattus norvegicus, UniProt A0A8I6AAN3); test: CETSA, Western blot; type: biochemical; details: H9c2 cell lysate, 20 μM carnosol, 30 min room temperature then 1 h at 4 °C; heated 5 min
T1 construct: gene Aldh18a1; native endogenous protein in H9c2 cell lysate; no tag; detected by Western blot
T1 sequence (A0A8I6AAN3 1-795): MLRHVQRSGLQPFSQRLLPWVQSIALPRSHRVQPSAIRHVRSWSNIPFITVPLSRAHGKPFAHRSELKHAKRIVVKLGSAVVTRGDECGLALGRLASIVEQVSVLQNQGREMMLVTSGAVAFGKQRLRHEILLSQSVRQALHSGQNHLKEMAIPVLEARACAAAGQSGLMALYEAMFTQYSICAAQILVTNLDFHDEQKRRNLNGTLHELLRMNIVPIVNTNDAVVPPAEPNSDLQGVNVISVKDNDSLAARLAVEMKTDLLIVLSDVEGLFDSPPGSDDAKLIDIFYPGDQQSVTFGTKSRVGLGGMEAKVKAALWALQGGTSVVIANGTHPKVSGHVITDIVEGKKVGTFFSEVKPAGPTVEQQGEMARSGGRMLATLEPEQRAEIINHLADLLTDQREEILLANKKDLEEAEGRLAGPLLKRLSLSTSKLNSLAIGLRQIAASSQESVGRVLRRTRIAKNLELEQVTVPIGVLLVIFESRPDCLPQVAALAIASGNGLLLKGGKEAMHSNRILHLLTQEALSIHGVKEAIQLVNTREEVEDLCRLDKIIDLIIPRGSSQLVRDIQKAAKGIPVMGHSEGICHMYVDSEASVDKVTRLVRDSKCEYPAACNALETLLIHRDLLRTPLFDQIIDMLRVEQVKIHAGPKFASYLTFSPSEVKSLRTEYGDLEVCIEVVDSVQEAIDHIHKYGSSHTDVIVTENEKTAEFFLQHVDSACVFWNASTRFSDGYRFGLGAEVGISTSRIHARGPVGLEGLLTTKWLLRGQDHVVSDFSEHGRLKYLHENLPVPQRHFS

GFP-Aldh18a1 (P5CS) = biological target: T2, GFP-Aldh18a1 (P5CS) (Mus musculus, UniProt Q9Z110); test: microscale thermophoresis (Monolith NT.[…]); type: binding
T2 construct: GFP fusion from plasmid, tag kept; expressed in 293T cells, used as NP40 lysate
T2 sequence (Q9Z110 1-795): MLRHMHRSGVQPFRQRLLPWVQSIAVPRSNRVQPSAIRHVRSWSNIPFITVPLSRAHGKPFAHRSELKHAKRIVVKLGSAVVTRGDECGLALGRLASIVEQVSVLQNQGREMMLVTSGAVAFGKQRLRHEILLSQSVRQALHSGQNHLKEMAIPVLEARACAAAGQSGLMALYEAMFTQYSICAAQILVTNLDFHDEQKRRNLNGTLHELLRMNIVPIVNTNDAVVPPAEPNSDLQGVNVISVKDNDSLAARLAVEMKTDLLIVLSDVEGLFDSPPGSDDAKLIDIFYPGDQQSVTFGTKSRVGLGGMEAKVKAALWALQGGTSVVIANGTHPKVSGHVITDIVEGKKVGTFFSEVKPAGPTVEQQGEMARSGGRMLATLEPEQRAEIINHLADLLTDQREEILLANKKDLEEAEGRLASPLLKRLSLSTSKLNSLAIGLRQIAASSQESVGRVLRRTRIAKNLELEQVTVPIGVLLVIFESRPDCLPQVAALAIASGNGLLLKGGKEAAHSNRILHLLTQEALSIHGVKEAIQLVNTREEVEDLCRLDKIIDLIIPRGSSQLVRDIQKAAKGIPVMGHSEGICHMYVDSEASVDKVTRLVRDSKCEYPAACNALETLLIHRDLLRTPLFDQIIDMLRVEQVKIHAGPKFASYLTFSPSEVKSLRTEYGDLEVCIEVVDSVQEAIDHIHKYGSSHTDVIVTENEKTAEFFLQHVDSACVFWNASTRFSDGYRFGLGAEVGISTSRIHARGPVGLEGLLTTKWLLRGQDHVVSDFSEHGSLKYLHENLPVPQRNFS

[2] = biological target: T3, P5CS (Aldh18a1), endogenous in C2C12 myotubes (Mus musculus, UniProt Q9Z110); test: CETSA, Western blot; type: cell-based; details: intact C2C12 myotubes, 20 μM carnosol, 1 h; NP40 lysate heated 5 min
T3 construct: native endogenous protein in C2C12 myotubes; no tag; detected by Western blot
T3 sequence (Q9Z110 1-795): T2 sequence (Q9Z110 1-795)

- Kd (GFP-Aldh18a1 (P5CS)): 17.4 µM
SMILES: CC(C)c1cc2c(c(O)c1O)[C@@]13CCCC(C)(C)[C@@H]1C[C@@H]2OC3=O [carnosol]
- thermal stability [1]: H9c2 cardiomyocytes also showed similar results that carnosol increased the thermal stability of P5CS
- thermal stability [2]: the thermal stability of P5CS in C2C12 was improved after the incubation of myotubes with carnosol
